From US6084072A, “Purified lectin and methods of use” (The Regents of the University of Michigan, priority 1993, dated 2000)
“And” between values parts separate entries of the source, which are not always exact repeats. Identical values can stand only once.

Experiments:
[1] = test system: colonic adenocarcinoma; format: binding, human; set-up: key to Labeling of transitional mucosa: 4^+: Maximum labeling of the brown reaction product; 0: No staining of the slide compared to control sections; 1^+: trace or weak staining definitely not seen on control slides; 2+3^+: stronger staining, but definitely less than maximal
[2] = test system: asialo-ovine submaxillary mucin; assay: pH dependence of amaranthin/asialo-ovine submaxillary mucin precipitation; format: binding; settings: 80 μg amaranthin, 5 μg asialo-ovine submaxillary mucin, universal buffer
Experimental: The pH dependence study utilized a 2-fold concentrate of a universal buffer system consisting of sodium citrate (24.6 mM), KH2 PO4 (28.7 mM) sodium barbitol (29.1 mM), boric acid (28.8 mM), and NaCl (209 mM), and was adjusted to the indicated pH values with 0.2 N NaOH or 0.2 N HCl. Water was added to complete the 2-fold dilution and the pH was recorded. Amaranthin and asialo-ovine submaxillary mucin solutions were prepared as concentrated solutions in 0.9% NaCI. A standard precipitation assay with amaranthin (80μg) and asialo-ovine submaxillary mucin (5 μg) was carried out using the universal buffer at the indicated pH.

[3] = test system: mucin purified from the LS174T xenograft; assay: Solid phase enzyme-linked lectin-binding assay
Experimental: A solid phase enzyme-linked lectin-binding assay has been developed for ACA to quantitate lectin binding to solubilized glycoconjugates. ACA is more sensitive in the measurement of purified cancer-associated mucin than peanut lectin, and can detect as little as 1 mg of mucin purified from the LS174T xenograft.

[4] = test system: HNPCC tissues; assay: Lectin histochemistry, HNPCC rectal biopsies; format: binding, human; set-up: key to Staining (global score 0-3+): 4^+: Maximum labeling of the brown reaction product; 0: No staining of the slide compared to control sections; 1^+: trace or weak staining definitely not seen on control slides; 2+3^+: stronger staining, but definitely less than maximal; settings: listed as ACA; for Weighted Average (0-400): mean ± SEM
Source text: Rectal biopsies were obtained from individuals who were first degree relatives of patients with hereditary nonpolyposis colorectal cancer (HNPCC) as identified by H. T. Lynch, M.D. These patients were the siblings or offspring of index patients who fit the criteria for Lynch Syndrome I or II. See Drzeniek, Z., and Usowska, E. (1979) Arch. Immunol Ther. Exp. 27, 253-262. However, since there is no definitive genetic or phenotypic marker for this familial syndrome, it is not possible to be certain that these patients represent a single homogenous genetic abnormality. The biopsies were fixed in formalin, and embedded in paraffin for tissue sectioning.
(§1) Four micron paraffin embedded tissue sections attached to glass slides were deparaffinized by serial incubations in xylene (twice), absolute ethanol (thrice), 95% ethanol, 70% ethanol, water and finally equilibrated in phosphate buffered saline (PBS), pH 7.0, containing 0.1% bovine serum albumin (BSA) commercially available from Sigma Corp of St. Louis, Mo. The slides were blotted dry adjacent to the tissue sections, and biotinylated lectin was added at a concentration of 10 μg/ml (for ACA) and 20 μg/ml (for PNA) in a quantity sufficient to completely cover the hydrated tissue (100-2001 μl). The lectin was rinsed off after a 30 minute incubation by eight 2-second dips into phosphate buffered saline. The slides were again blotted, and the tissue covered with Streptavidin-horseradish peroxidase (HRP) obtained from Zymed Laboratories, San Francisco, Calif. at a concentration of 10 μg/ml for 30 minutes. The slides were rinsed as mentioned above, and the pigmented reaction product developed by the addition of a freshly prepared chromogen reagent solution prepared within two hours of use as follows. […]
(§2) Therefore, each individual crypt of Lieberkuhn was given a score from 0-4^+, and the labeling was expressed as a "weighted average", or, the sum of scores from 100 crypts, which could range from 0 (all crypts not labeled) to 400 (all 100 crypts maximally labeled). […]

[5] = test system: adenomatous colonic polyps; assay: Lectin histochemistry, adenomatous colonic polyps; format: binding, human; settings: glands in adenomatous polyps; mean ± SEM; listed as ACA
Source text: Specimens of adenocarcinoma of the colon and adenomatious colonic polyps from resected specimens were obtained from the Pathology Service at the Ann Arbor Veterans Administration Medical Center. These specimens were obtained at surgery or at colonoscopic polypectomy, fixed in buffered formalin, and embedded in paraffin for routine pathological examination. Additional four micron sections were cut for lectin histochemistry after the pathological diagnosis was confirmed.
as §1, with “minutes.” for “minutes. The slides were rinsed as mentioned above, and the pigmented reaction product developed by the addition of a freshly prepared chromogen reagent solution prepared within two hours of use as follows.”

[6] = test system: FAP colonic tissue; assay: Lectin histochemistry, familial adenomatous polyposis (FAP) colonic tissue; format: binding, human
Source text: Full thickness specimens of colonic tissue were obtained from colectomy specimens for familial adenomatous polyposis at Johns Hopkins Hospital, fixed in formalin, and embedded in paraffin for tissue sectioning. The tissue specimens contained normal-appearing flat mucosa familial adenomatous polyposis, or FAP-normal, as well as a polypoid, adenomatious tissue familial adenomatous polyposis, or FAP-abnormal.
Four micron paraffin embedded tissue sections attached to glass slides were deparaffinized by serial incubations in xylene (twice), absolute ethanol (thrice), 95% ethanol, 70% ethanol, water and finally equilibrated in phosphate buffered saline (PBS), pH 7.0, containing 0.1% bovine serum albumin (BSA) commercially available from Sigma Corp of St. Louis, Mo. The slides were blotted dry adjacent to the tissue sections, and biotinylated lectin was added at a concentration of 10 μg/ml (for ACA) and 20 μg/ml (for PNA) in a quantity sufficient to completely cover the hydrated tissue (100-2001 μl). The lectin was rinsed off after a 30 minute incubation by eight 2-second dips into phosphate buffered saline. The slides were again blotted, and the tissue covered with Streptavidin-horseradish peroxidase (HRP) obtained from Zymed Laboratories, San Francisco, Calif. at a concentration of 10 μg/ml for 30 minutes. The slides were rinsed as mentioned above, and the pigmented reaction product developed by the addition of a freshly prepared chromogen reagent solution prepared within two hours of use as follows.
3,3'-diaminobenzidine was aliqotted at 5 mg/mL in 0.01 M (Tris) tris hydroxy methyl amino methane saline, pH 7.5 and frozen at -70° C. until use. For use, the aliquot was thawed, diluted 1:10 in 0.01 M (Tris) tris hydroxy methyl amino methane saline pH 7.5, and 3.3 μL of 30% H2 O2 were added to each 5 ml. This solution was allowed to stand for 10 min, and 100-200 μl was applied to the tissue sections that had been incubated earlier with biotinylated lectin and Streptavidin-HRP. After 10 min, the slides were rinsed with albumin-free phosphate buffered saline. […]
A second method for scoring tissues was used to survey normal colonic tissues, adenomatous polyps, and cancers. For these studies, individual epithelial "units" were counted as either positive or negative; i.e., each crypt of Lieberkuhn or neoplastic gland was considered an independent scorable unit, and the tissue score was expressed in terms of the percentage of units with any degree of definite labeling as from 1^+ to 4^+. […]
as §2

amaranthin
Effect of Newcastle disease virus neuraminidase on labeling ([1]; cancer specimens): Neither sialidase enhanced labeling | Effect of V. Cholerae neuraminidase on labeling ([1]; cancer specimens): Neither sialidase enhanced labeling | Percent of Epithelial Units Labeled ([1]; malignant glands, mean ± SEM, listed as ACA): 97±2% and 97%±2% | Labeling of transitional mucosa ([1]; mucosa adjacent to colonic cancer, upper and lower crypt region): 1^+ | pH at or below which almost no precipitate formed [2]: ≤ 3 pH | pH of peak precipitation activity [2]: 5 pH | pH range of significant amaranthin activity [2]: 4-9 pH | smallest amount of mucin detected [3]: 1 mg | Weighted Average (0-400) ([4]; HNPCC outliers): 203±43 | Weighted Average (0-400) ([4]; HNPCC): 74±70 | Staining (global score 0-3+) ([4]; biotinylated ACA 10 μg/mL or PNA 20 μg/mL): 1^+ | Percent of Epithelial Units Labeled [5]: 82±7% and 82%±7% and 82 + 7% | Weighted Average (0-400) ([6]; FAP, mean ± SEM, listed as ACA): 224±76 | Percent of epithelial glands with bound lectin ([6]; all 28 specimens, mean): 67±6% | Percent of Epithelial Units Labeled ([6]; flat tissue, mean ± SEM, listed as ACA): 60±7% and 60%±7% | Percent of Epithelial Units Labeled ([6]; polypoid tissue, mean ± SEM, listed as ACA): 83±7% and 83%±7%
